Test results: patent publication US7105553B2, “Thiazolyl amide derivatives” (Bayer Aktiengesellschaft, priority 1999, dated 2006)
Read-outs that look alike come from different tables or passages of the source.

Experiments:
HSV-2 G = experiment: anti-HSV screening test (cytopathogenic effect, fluorescein diacetate read-out), HSV-2 G on Vero cells; assay type: cell-based; settings: read-out: IC50 HSV-2 G/Vero
Description: (§1) HSV (HSV-1 Walki, HSV-1F or HSV-2G) was cultivated on Vero cells (ATCC CCL-81) under the following conditions: The cells were grown in M199 medium (5% foetal calf serum, 2 mM glutamine, 100 IU/ml penicillin, 100 μg/ml streptomycin) in cell culture bottles at 37° C. and 5% CO2. The cells were splitted twice per week, in each case 1:4. For the infection, the medium was removed, the cells were washed with Hank's solution, detached using 0.05% trypsin, 0.02% EDTA (Seromed L2143) and incubated at a density of 4×10^5 cells per ml under the abovementioned conditions for 24 hours. The medium was then removed and the virus solution was added at an m.o.i of <0.05 in a volume of 2 ml per 175 cm^2 of surface. The medium was incubated under the conditions mentioned for one hour and then made up to a volume of 50 ml per 175 cm^2 bottle. […] The virus was released by freezing (−80° C.) and thawing (37° C.) the cultures twice. Cell debris was removed by centrifugation (300 g, 10 min, 4° C.) and the supernatant was frozen down in aliquots at −80° C.
(§2) The anti-HSV action was determined in a screening test system in 96-well microtitre plates using various cell lines of neuronal, lymphoid and epithelial origin, such as, for example, Vero (kidney cell line of the green monkey), MEF (murine embryonal fibroblasts), HELF (humane embryonal fibroblasts), NT2 (humane neuronal cell line) or Jurkat (humane lymphoid T-cell line).
(§3) The substances (50 mM), dissolved in DMSO (dimethyl sulphoxide), are examined on microtitre plates (for example 96-well MTP) in final concentrations of 250-0.5 μM (micromolar) in two replications (4 substances/plate). In the case of potent substances, the dilutions are continued for several plates up to 0.5 pM (picomolar). Also examined are toxic and cytostatic effects of the substances. After an appropriate dilution of the substances (1:2) on the microtitre plate in medium, a suspension of cells (1×10^4 cells per well) such as, for example, of Vero cells in M199 (medium 199) with 5% foetal calf serum, 2 mM glutamine and optionally 100 IU/ml penicillin and 100 μg/ml streptomycin or of MEF cells in EMEM (Eagle's Minimum Essential Medium) with 10% foetal calf serum, 2 mM glutamine and optionally 100 IU/ml penicillin and 100 μg/ml streptomycin, or of HELF cells in EMEM with 10% foetal calf serum, 2 mM glutamine and optionally 100 IU/ml penicillin and 100 μg/ml streptomycin, or of NT2- and Jurkat cells in DMEM ([…] glucose plus pyridoxin) with 10% foetal calf serum, 2 mM glutamine, 1 mM sodium pyruvate, non-essential amino acids and optionally 100 IU/ml penicillin and 100 μg/ml streptomycin is added to each well and the cells in the relevant wells are infected with an appropriate amount of virus (HSV-1 F or HSV-2 G having an m.o.i (multiplicity of infection) of 0.0025 for HELF, Vero and MEF cells and an m.o.i of 0.1 for NT2 and Jurkat cells). The plates are then incubated at 37° C. in a CO2 incubator (5% CO2) for several days. […] The plates are initially evaluated visually using a microscope and then analysed using a fluorescent dye. To this end, the cell supernatant of all wells of the MTP is aspirated and the wells are filled with 200 μl of PBS wash solution. The PBS is then aspirated and all the wells are filled with 200 μl of fluorescent dye solution (fluorescein diacetate, 10 μg/ml in PBS). After an incubation time of 30-90 min, the test plates are read in a fluorescence detector at an excitation wavelength of 485 nm and an emission wavelength of 538 nm.

HSV-1 F = experiment: anti-HSV screening test (cytopathogenic effect, fluorescein diacetate read-out), HSV-1 F on Vero cells; assay type: cell-based; settings: read-out: IC50 HSV-1 F/Vero
Description: as §1, §2, §3

HSV-2 = experiment: in-vivo action: survival of intranasally HSV-infected mice; parameters: species or system mice (BALB/cABom); settings: Human alphaherpesvirus 2; HSV-2, intranasal infection 5×10^4 Pfu, treatment 3 times per day for 5 days from 6 hours after infection; read-out: ED50 (50% of the animals survive at this dose)
Description: 6 week-old female mice, BALB/cABom strain were obtained from a commercial breeder (Bomholtgard Breeding and Research Centre Ltd.).
The animals were anaesthetized with diethyl ether (Merck) in a sealed glass vessel. 50 μl of a dilution of the virus stock (infection dose 5×10^4 Pfu) were introduced into the nose of the anaesthetized animals using an Eppendorf pipette. In 90-100% of the animals, this infection dose causes death by a generalized infection with prominent respiratory and central-nervous symptoms on average after 5 to 8 days.
6 hours after the infection, the animals were treated with doses of 0.1-100 mg/kg of body mass, 3 times per day, at 7 a.m., 2 p.m. and 7 p.m., for a period of 5 days. The substances were pre-dissolved in DMSO and resuspended in tylose/PBS (Hoechst) (final concentration 1.5% DMSO, 0.5% tylose in PBS).
After the last administration, the animals were monitored further and the time of death was determined.

[1] = Human alphaherpesvirus 2, Vero cells infected with HSV-2 G, m.o.i. 0.0025, half-maximal fluorescence intensity vs non-infected cell control
[2] = Human alphaherpesvirus 1, Vero cells infected with HSV-1 F, m.o.i. 0.0025, half-maximal fluorescence intensity vs non-infected cell control

Row | Compound | melting point [°C] | further results
1 | COc1ccc(F)cc1-c1ccc(CC(=O)N(CC2CCCO2)c2nc(C)c(S(N)(=O)=O)s2)cc1 (stereo not drawn) | 79 | –
2 | Cc1nc(N(C)C(=O)Cc2ccc(-c3ccncc3F)cc2)sc1S(N)(=O)=O | 223 | –
3 | Cc1nc(N(C)C(=O)Cc2ccc(-c3ccccc3)cc2F)sc1S(N)(=O)=O | 130 | –
4 | CNS(=O)(=O)c1sc(N(C)C(=O)Cc2ccc(-c3cccc(C=O)c3)cc2)nc1C | 192 | –
5 | CNS(=O)(=O)c1sc(N(C)C(=O)Cc2ccc(-c3cccc(N)c3)cc2)nc1C | 193 | –
6 | CNS(=O)(=O)c1sc(N(C)C(=O)Cc2ccc(-c3ncccc3N)cc2)nc1C.Cl | 160 | –
7 | Cc1nc(N(C)C(=O)Cc2ccc(-c3cccc(N4CCCC4)c3)cc2)sc1S(N)(=O)=O | 152 | –
8 | Cc1nc(N(C)C(=O)Cc2ccc(-c3cncc(C#N)c3)cc2)sc1S(N)(=O)=O | 231 | –
9 | Cc1nc(N(C)C(=O)Cc2ccc(-c3ccccc3)cc2)sc1S(=O)(=O)NCCNC(=O)OC(C)(C)C | 150 | –
10 | CNS(=O)(=O)c1sc(N(C)C(=O)Cc2ccc(-c3ccc(OC(F)(F)F)cc3)cc2)nc1C | 109 | –
11 | CNS(=O)(=O)c1sc(N(C)C(=O)Cc2ccc(-c3ncccc3C(F)(F)F)cc2)nc1C | 180 | –
12 | CNS(=O)(=O)c1sc(N(C)C(=O)Cc2ccc(-c3cc(F)ccc3C)cc2)nc1C [Example 8] | 186 | IC50 (HSV-2 G; [1]): 100 nM; IC50 (HSV-1 F; [2]): 100 nM
13 | CNS(=O)(=O)c1sc(N(CCN2CCCC2=O)C(=O)Cc2ccc(-c3ccccc3)cc2)nc1C [Example 23] | 156 | IC50 (HSV-2 G; [1]): 100 nM; IC50 (HSV-1 F; [2]): 30 nM
14 | Cc1nc(N(C)C(=O)Cc2ccc(-c3ccccn3)cc2)sc1S(N)(=O)=O [Example 38, N-[5-(Aminosulphonyl)-4-methyl-1,3-thiazol-2-yl]-N-methyl-2-[4-(2-pyridinyl)phenyl]acetamide] | – | IC50 (HSV-2 G; [1]): 16 nM; IC50 (HSV-1 F; [2]): 50 nM
15 | Cc1nc(N(C)C(=O)Cc2ccc(-c3ccccc3F)cc2)sc1S(N)(=O)=O [Example 57, N-[5-(Aminosulphonyl)-4-methyl-1,3-thiazol-2-yl]-2-(2′-fluoro[1,1′-biphenyl]-4-yl)-N-methylacetamide] | – | ED50 (HSV-2): ~0.7 mg/kg; IC50 (HSV-2 G; Human alphaherpesvirus 2, Vero): < 10 nM; IC50 (HSV-1 F; Human alphaherpesvirus 1, Vero): < 10 nM
16 | Cc1nc(N(C)C(=O)Cc2ccc(-c3cc(F)ccc3F)cc2)sc1S(N)(=O)=O [Example 87, N-[5-(aminosulphonyl)-4-methyl-1,3-thiazol-2-yl]-2-(2′,5′-difluoro-1,1′-biphenyl-4-yl)-N-methylacetamide] | – | IC50 (HSV-2 G; [1]): < 10 nM; IC50 (HSV-1 F; [2]): < 10 nM
17 | Cc1nc(N(C)C(=O)Cc2ccc(-n3cccn3)cc2)sc1S(N)(=O)=O [Example 126, N-[5-(Aminosulphonyl)-4-methyl-1,3-thiazol-2-yl]-N-methyl-2-[4-(1H-pyrazol-1-yl)phenyl]acetamide] | – | IC50 (HSV-2 G; [1]): 100 nM; IC50 (HSV-1 F; [2]): 10 nM

More lines, main results first:

Row | melting point [°C] | Compound | further results
18 | 81 | Cc1nc(N(C)C(=O)Cc2ccc(-c3cccc([N+](=O)[O-])c3)cc2)sc1S(=O)(=O)N(C)C | –
19 | 184 | Cc1nc(N(C)C(=O)Cc2ccc(-c3ccccc3)cc2)sc1S(=O)(=O)N(C)C | –
20 | 165 | CCOc1ccc(CC(=O)N(CCOC)c2nc(C)c(S(N)(=O)=O)s2)cc1 | –
21 | 168 | CCOc1ccc(CC(=O)N(C)c2nc(C)c(S(N)(=O)=O)s2)cc1 | –
22 | 154 | CCOc1ccc(CC(=O)N(C)c2nc(C)c(S(=O)(=O)N(C)C)s2)cc1 [Example 14] | IC50 (HSV-2 G; [1]): 750 nM; IC50 (HSV-1 F; [2]): 100 nM
